The values below come from patent US20240408169A1 (priority 2023, published 2024).

*1 amine or outer side, *2 acyl side, *3 side chain or, on linkers, in order; H or OH if unused. Where a SMILES comes first, the peptide text is derived from it. Bridges are numbered along the chain shown (N, C = ends). [ ]: non-standard residue; d: D form. The star is where a group is joined. X100 = CC(=O)NC1CC=C(c2ccc(Cl)cc2C[C@@H](C(=O)[*:2])N(C)[*:1])CC1; X84 = CC(=O)N1CCC(c2ccc(Cl)cc2C[C@@H](C(=O)[*:2])N(C)[*:1])CC1; X26 = CN([C@@H](Cc1cc(F)ccc1-c1cnn(C2CC2)c1)C(=O)[*:2])[*:1]; NMehhhLys(Me) = CN([C@@H](CCCCCCCN(C)[*:3])C(=O)[*:2])[*:1]; X112 = CN([C@@H](Cc1cc(F)ccc1-c1cnn(C)c1)C(=O)[*:2])[*:1]; X22 = CN([C@@H](Cc1cc(Cl)ccc1-c1cnn(C)c1)C(=O)[*:2])[*:1]; NMe(hhhLys) = CN([C@@H](CCCCCCCN[*:3])C(=O)[*:2])[*:1]; Cyclobutanecarbonyl(1-CF3) = O=C(C1(C(F)(F)F)CCC1)*; X88 = CC(C)c1ccc(Cl)cc1C[C@@H](C(=O)[*:2])N(C)[*:1]; cBuCO(3,3-F2-1-CF3) = O=C(C1(C(F)(F)F)CC(F)(F)C1)*; Pro(trans-4-F) = O=C(O)[C@@H]1C[C@@H](F)CN1; Gly(cPr) = N[C@H](C(=O)O)C1CC1

In assay [1] the target is T1, CyclinA2/CDK2 (Homo sapiens, UniProt P20248).
T1 construct: purchased CRELUX Protein Services
Put plainly: Fluorescence Polarization (FP) competitive binding assay, Cyclin A2/Cdk2.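 Further: plates equilibrated two hours at room temperature before polarization reading, IC50 fitted from eight-concentration compound titration curves.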 To be noted: 8 nM Cyclin A2/Cdk2, 2 nM FAM probe; average of 2-3 independent experiments; read-out: Cyclin A FP IC50. For orientation: In fluorescence polarisation assays a small probe gives low polarisation when free and higher when bound to something large.

For assay [2], the target named is T2, CyclinB1/CDK1 (Homo sapiens, UniProt P14635).
T2 construct: purchased Eurofins, discovery 14-450
Put plainly: Fluorescence Polarization (FP) competitive binding assay, Cyclin B1/Cdk1.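 Further: fluorescence polarization read after equilibration at room temperature, with IC50 taken from serially diluted dose-response curves.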 As to conditions: 10 nM Cyclin B1/Cdk1, 2 nM FAM probe; average of 2-3 independent experiments; read-out: Cyclin B FP IC50.

Assay [3] has as its target T3, CyclinE1/CDK2 (Homo sapiens, UniProt P24864).
T3 construct: purchased Eurofins, discovery 14-475
Put plainly: Fluorescence Polarization (FP) competitive binding assay, Cyclin E1/Cdk2.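 Further: readings taken after two-hour equilibration at room temperature in HEPES buffer with NaCl, DTT, NP-40 and BSA, IC50 fitted from eight-concentration serial dilution series.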 As to conditions: 10 nM Cyclin E1/Cdk2, 2 nM FAM probe; average of 2-3 independent experiments; read-out: Cyclin E FP IC50.

Assay [4] has as its system WI-38 cells. Put plainly: MTT proliferation assay, WI-38.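 Further: Eight- or ten-point dilution series, with exposure length chosen to span about three to four cell doublings.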 As to conditions: 3 days compound exposure, 1:3 serial dilution starting at 10 μM. It counts as cell-based. (In general: Tetrazolium assays rely on reduction of a dye to a coloured formazan, in cell work by metabolically active cells.)
The subject of assay [5] is NCI-H1048 cells. Put plainly: MTT proliferation assay, NCI-H1048.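 Further: Dose-response in 96-well plates over 8 or 10 concentration points, with exposure spanning 3-4 cell doublings.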 It counts as cell-based. As to conditions: 5 days compound exposure, 1:3 serial dilution starting at 10 μM.
Assay [6] concerns OVCAR3 cells. Put plainly: MTT proliferation assay, OVCAR3.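 Further: compound given as an 8- or 10-point series, one day after plating, with exposure covering roughly 3-4 cell doublings.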 As to conditions: 5 days compound exposure, 1:3 serial dilution starting at 10 μM. Format: cell-based.

Turning to `CC(=O)N1CCC(c2ccc(Cl)cc2C[C@H]2C(=O)N(C)CCCCCCC[C@H](N(C)C(=O)[C@@H](NC(=O)[C@@H]3C[C@@H](F)CN3C(=O)C3(C(F)(F)F)CC(F)(F)C3)C3CC3)C(=O)N[C@@H](CC(C)C)C(=O)N2C)CC1` [Example 52] ({cBuCO(3,3-F2-1-CF3)}-[Pro(trans-4-F)][Gly(cPr)][NMehhhLys(Me)]L[X84]; lactam 3-C), the IC50 (usually the concentration that inhibits the measured activity by half) is 40 nM in assay [1], 20 nM in assay [2] and 1130 nM in assay [3]. Moreover, the GI50 – broadly, the concentration that inhibits growth by half – worked out at 13100 nM in assay [4], 10 nM in assay [5] and 10 nM in assay [6].

On to `CCOC(=O)N1CC=C(c2ccc(Cl)cc2C[C@H]2C(=O)NCCCCC=CC[C@H](N(C)C(=O)[C@@H](NC(=O)[C@@H]3C[C@@H](F)CN3C(=O)C3(C(F)(F)F)CC(F)(F)C3)C3CC3)C(=O)N[C@@H](CC(C)C)C(=O)N2C)CC1` [Example 53, Ethyl 4-(4-chloro-2-(((3S,6S,9S)-9-((S)-2-cyclopropyl-2-((2S,4R)-1-(3,3-difluoro-1-(trifluoromethyl)cyclobutane-1-carbonyl)-4-fluoropyrrolidine-2-carboxamido)-N-methylacetamido)-6-isobutyl-4-methyl-2,5,8-trioxo-1,4,7-triazacyclohexadec-11-en-3-yl)methyl)phenyl)-3,6-dihydropyridine-1 (2H)-carboxylate], for which the IC50 in assay [1] stood at 90 nM; in assay [2], 20 nM; in assay [3] it was 12400 nM. For the same compound, the GI50 came to 4500 nM in assay [4], 180 nM in assay [5] and 180 nM in assay [6].

Regarding `CC(=O)NC1CC=C(c2ccc(Cl)cc2C[C@H]2C(=O)N(C)CCCCCCC[C@H](N(C)C(=O)[C@@H](NC(=O)[C@@H]3C[C@@H](F)CN3C(=O)C3(C(F)(F)F)CC(F)(F)C3)C3CC3)C(=O)N[C@@H](CC(C)C)C(=O)N2C)CC1` (stereo partly drawn) [Example 60] ({cBuCO(3,3-F2-1-CF3)}-[Pro(trans-4-F)][Gly(cPr)][NMehhhLys(Me)]L[X100]; lactam 3-C), the IC50 was 20 nM in assay [1], 20 nM in assay [2] and 740 nM in assay [3]. Also, the GI50 in assay [4] was found to be 5720 nM; in assay [5], 10 nM; in assay [6] it was 10 nM.

Take `CC(C)C[C@@H]1NC(=O)[C@@H](N(C)C(=O)[C@@H](NC(=O)[C@@H]2C[C@@H](F)CN2C(=O)C2(C(F)(F)F)CC(F)(F)C2)C2CC2)CCCCCCCNC(=O)[C@H](Cc2cc(Cl)ccc2C(C)C)N(C)C1=O` [Example 63] ({cBuCO(3,3-F2-1-CF3)}-[Pro(trans-4-F)][Gly(cPr)][NMe(hhhLys)]L[X88]; lactam 3-C): the IC50 came out at 120 nM in assay [1], 20 nM in assay [2] and 3510 nM in assay [3]. Also, the GI50 in assay [4] amounted to 3170 nM; in assay [5], 110 nM; in assay [6] it was 240 nM.

With `CC(C)C[C@@H]1NC(=O)[C@@H](N(C)C(=O)[C@@H](NC(=O)[C@@H]2C[C@@H](F)CN2C(=O)C2(C(F)(F)F)CC(F)(F)C2)C2CC2)CCCCCCCN(C)C(=O)[C@H](Cc2cc(F)ccc2-c2cnn(C3CC3)c2)N(C)C1=O` [Example 68] ({cBuCO(3,3-F2-1-CF3)}-[Pro(trans-4-F)][Gly(cPr)][NMehhhLys(Me)]L[X26]; lactam 3-C), the values for the IC50 in assay [1], in assay [2] and in assay [3] were 20 nM, 20 nM and 120 nM, respectively. The GI50 in assay [4] stood at 12800 nM; in assay [5] it was 10 nM; in assay [6] it was 10 nM.

With `CC(C)C[C@@H]1NC(=O)[C@@H](N(C)C(=O)[C@@H](NC(=O)[C@@H]2C[C@@H](F)CN2C(=O)C2(C(F)(F)F)CCC2)C2CC2)CCCCCCCN(C)C(=O)[C@H](Cc2cc(F)ccc2-c2cnn(C)c2)N(C)C1=O` [Example 69] ({Cyclobutanecarbonyl(1-CF3)}-[Pro(trans-4-F)][Gly(cPr)][NMehhhLys(Me)]L[X112]; lactam 3-C), the IC50 in assay [1] is 20 nM; in assay [2] it was 20 nM; in assay [3], 110 nM. Besides, the GI50 was 17600 nM in assay [4], 10 nM in assay [5] and 10 nM in assay [6].

In the case of `CC(C)C[C@@H]1NC(=O)[C@@H](N(C)C(=O)[C@@H](NC(=O)[C@@H]2C[C@@H](F)CN2C(=O)C2(C(F)(F)F)CCC2)C2CC2)CCCCCCCNC(=O)[C@H](Cc2cc(Cl)ccc2-c2cnn(C)c2)N(C)C1=O` [Example 70] ({Cyclobutanecarbonyl(1-CF3)}-[Pro(trans-4-F)][Gly(cPr)][NMe(hhhLys)]L[X22]; lactam 3-C), the IC50 was 20 nM in assay [1], 20 nM in assay [2] and 290 nM in assay [3]. The GI50 is 10100 nM in assay [4], 10 nM in assay [5] and 10 nM in assay [6].

As for `CC(C)C[C@@H]1NC(=O)[C@@H](N(C)C(=O)[C@@H](CC(=O)[C@@H]2C[C@@H](F)CN2C(=O)C2(C(F)(F)F)CC(F)(F)C2)C2CC2)CCCCCCN(C)C(=O)[C@H](Cc2cc(Cl)ccc2C2=CCOCC2)N(C)C1=O` [Example 71], the IC50 in assay [1] was 20 nM; in assay [2], 20 nM; in assay [3], 1590 nM. The GI50 in assay [4] came to 13800 nM; in assay [5], 70 nM; in assay [6], 90 nM.

For the compound `CC(C)C[C@@H]1NC(=O)[C@@H](N(C)C(=O)[C@@H](NC(=O)[C@@H]2C[C@@H](F)CN2C(=O)C2(C(F)(F)F)CC(F)(F)C2)C2CC2)CCCCCCN(C)C(=O)[C@H](Cc2cc(Cl)ccc2-c2cnn(C)c2)N(C)C1=O` [Example 72], the IC50 was found to be 30 nM in assay [1], 20 nM in assay [2] and 1050 nM in assay [3]. Also, the GI50 came to 14900 nM in assay [4], 40 nM in assay [5] and 60 nM in assay [6].

As for `CC(C)C[C@@H]1NC(=O)[C@@H](N(C)C(=O)[C@@H](NC(=O)[C@@H]2C[C@@H](F)CN2C(=O)C2(C(F)(F)F)CC(F)(F)C2)C2CC2)CCCCCCN(C)C(=O)[C@H](Cc2cc(Cl)ccc2-c2cnn(C3CC3)c2)N(C)C1=O` [Example 73], the IC50 is 30 nM in assay [1], 20 nM in assay [2] and 930 nM in assay [3]. The GI50 in assay [4] stood at 3650 nM; in assay [5], 40 nM; in assay [6], 60 nM.

Regarding `CC(C)C[C@@H]1NC(=O)[C@@H](N(C)C(=O)[C@@H](NC(=O)[C@@H]2C[C@@H](F)CN2C(=O)C2(C(F)(F)F)CC(F)(F)C2)C2CC2)CC=CCCCCN(C)C(=O)[C@H](Cc2cc(Cl)ccc2-c2cnn(C3CC3)c2)N(C)C1=O` [Example 78], the IC50 was 40 nM in assay [1], 20 nM in assay [2] and 640 nM in assay [3]. Further, the values for the GI50 in assay [4], in assay [5] and in assay [6] were 4520 nM, 30 nM and 40 nM, respectively.

For `COCn1cc(-c2ccc(Cl)cc2C[C@H]2C(=O)N(C)CCCCC=CC[C@H](N(C)C(=O)[C@@H](NC(=O)[C@@H]3C[C@@H](F)CN3C(=O)C3(C(F)(F)F)CCC3)C3CC3)C(=O)N[C@@H](CC(C)C)C(=O)N2C)cn1` [Example 80], the results for the IC50 in assay [1], in assay [2] and in assay [3] were 40 nM, 20 nM and 300 nM, respectively. Also, the GI50 was determined as 11600 nM in assay [4], 30 nM in assay [5] and 30 nM in assay [6].

On to `CC(C)C[C@@H]1NC(=O)[C@@H](N(C)C(=O)[C@@H](NC(=O)[C@@H]2C[C@@H](F)CN2C(=O)C2(C(F)(F)F)CCC2)C2CC2)CC=CCCCCN(C)C(=O)[C@H](Cc2cc(Cl)ccc2-c2cnn(C3CC3)c2)N(C)C1=O` [Example 81], for which the IC50 was 40 nM in assay [1], 20 nM in assay [2] and 300 nM in assay [3]. For the same compound, the GI50 came to 4300 nM in assay [4], 40 nM in assay [5] and 50 nM in assay [6].

For the compound `CC(C)C[C@@H]1NC(=O)[C@@H](N(C)C(=O)[C@@H](NC(=O)[C@@H]2C[C@@H](F)CN2C(=O)C2(C(F)(F)F)CC(F)(F)C2)C2CC2)CC=CCCCCN(C)C(=O)[C@H](Cc2cc(F)ccc2-c2cnn(C3CCC3)c2)N(C)C1=O` [Example 88], the IC50 in assay [1] was found to be 50 nM; in assay [2] it was 20 nM; in assay [3] it was 200 nM. Also, the GI50 is 7640 nM in assay [4], 30 nM in assay [5] and 30 nM in assay [6].

For `CC(C)C[C@@H]1NC(=O)[C@@H](N(C)C(=O)[C@@H](NC(=O)[C@@H]2C[C@@H](F)CN2C(=O)C2(C(F)(F)F)CC(F)(F)C2)C2CC2)CC=CCCCCNC(=O)[C@H](Cc2cc(Cl)ccc2C2=CCN(C(=O)C3CC3)CC2)N(C)C1=O` [Example 89], the IC50 in assay [1] is 120 nM; in assay [2], 20 nM; in assay [3] it was 5410 nM. For the same compound, the values for the GI50 in assay [4], in assay [5] and in assay [6] were 4340 nM, 310 nM and 380 nM, respectively.

On to `CC(C)C[C@@H]1NC(=O)[C@@H](N(C)C(=O)[C@@H](NC(=O)[C@@H]2C[C@@H](F)CN2C(=O)C2(C(F)(F)F)CC(F)(F)C2)C2CC2)CC=CCCCCNC(=O)[C@H](Cc2cc(Cl)ccc2C2=CCN(C(=O)C(C)C)CC2)N(C)C1=O` [Example 90], for which the results for the IC50 in assay [1], in assay [2] and in assay [3] were 90 nM, 20 nM and 3700 nM, respectively. For the same compound, the figures for the GI50 in assay [4], in assay [5] and in assay [6] were 4130 nM, 260 nM and 230 nM, respectively.
